This is an account of results in US20250084079A1, “COMPOSITIONS AND METHODS FOR INHIBITION OF RAS” (TheRas, Inc., priority 2022, published 2025).

Molecules are shown by their SMILES. Where two headings read alike, the source gives them in different places. Where only a bound is given, the exact number is not on record here.

Assay [1] relates to pERK in GP2d cells (KRAS G12D). The experiment in a line: Cell-based pERK HTRF assay in GP2d cell. The conditions noted are these: 60 min incubation. The protocol:
A pERK assay (Perkin Elmer) was used to determine the effectiveness of compounds in disrupting KRAS G12D protein/effector signaling in cells.
On Day 1, cells (GP2d) were seeded into 96-well plates at 3×10^4 cells/well in 80 μL complete growth media (DMEM, 10% FBS).
On Day 2, cells were treated with compounds at 0.25% DMSO. The source plate was created with compounds diluted in media at 5-fold the final assay concentration. The compounds were run in a 9-point concentration curve starting at 1 μM, with a half-log dilution between concentrations. 20 μL was transferred onto the cell plates (final volume in wells was 100 μL). Plates were harvested after 60 min incubation by aspirating media and adding kit-supplied 1× supplemented lysis buffer to all wells (50 μL per well). Plates were then placed on a plate shaker and incubated at 850 rpm for an additional 30 min.
Antibody mixture solution is prepared by diluting aliquoted d2 and Eu Cryptate antibodies 1:20 in kit supplied detection buffer, mix the diluted antibodies solutions (1:1 v:v). 4 μL of this solution is then added to a 384-well detection plate (Perkin Elmer; 6008230).
Samples were homogenized by pipetting up and down and then transferred (16 μL of cell lysates) from the 96-well cell culture plate to two wells of the HTRF 384-well detection plate containing the antibody solution. Plates were centrifuged (524 g for 1 min) and allowed to incubate between 4 and 24 h at room temperature. Maximum signal is reached after 4 h incubation time and remains stable over a period of 24 hours. Therefore, readings can be made between 4 and 24 h of incubation. Plates were centrifuged again (524 g for Imin), then analyzed on the EnVision plate reader using the following settings: Excitation 320 nm, Bandwidth 75 nm; Emission 615 nm, Bandwidth 85 nm; Gain 100%; Flashes 100; Lag 60 μs.

Assay [2] addresses T1, Avi-KRAS WT (1-169) GppNHp/RAF1 RBD-3xFLAG (52-151) (Homo sapiens, UniProt P01116).
T1 construct: 50 nM Avi-KRAS WT (1-169) GppNHp
The experiment in a line: RAS-effector PPI HTRF disruption assay, Raf1-GppNHp-KRAS WT. Format: biochemical. As for the experimental part: (§1) A protein:protein interaction (PPI) Homogeneous Time Resolved Fluorescence (HTRF) assay was used to determine the effectiveness of compounds of the present disclosure in disrupting KRAS protein and effector (RAF1 or PIK3 CA) binding.
(§2) The HTRF assay used the following reagents and proteins: (i) 375 nM Avi-KRAS G12D/Q25A (1-169) GppNHp/3×FLAG-PI3KCA (157-299); (ii) 100 nM Avi-KRAS G12D (1-169) GppNHp/RAF1 RBD-3×FLAG (52-151); (iii) 50 nM Avi-KRAS G12V (1-169) GppNHp/RAF1 RBD-3×FLAG (52-151); (iv) 50 nM Avi-KRAS WT (1-169) GppNHp/RAF1 RBD-3×FLAG (52-151); and (v) 35 nM Avi-PI3K RBD CA-3×FLAG; Assay Buffer: 50 mM Tris pH 7.5, 100 mM NaCl, 5 mM MgCl2, 0.1% BSA, 0.01% Tween, 1 mM TCEP, 10% DMSO; Bead Buffer: 50 mM Tris pH 7.5, 0.01% Tween 20; Assay volume: 20 μL (384 well plate-low volume format); and Compound titration: 100-0.02 μM, 3× dilution series.
(§3) The HTRF assay employed the following protocol:
(§4) Compounds were dispensed in assay plate (384-well, Grenier Bione #784075) using Echo (model 555) with dose response settings: 200 nL final volume, titration from 100 μM as a 10-point dilution series. Protein mix was prepared in assay buffer, and dispensed on plates, 10 μL per well, then incubated for 1 h at room temperature, with 700 rpm shaking. Reagents mix was prepared and dispensed on plates, 10 μL per well, then incubated for 1 h at room temperature, with 700 rpm shaking.
(§5) Plates were analyzed on an Envision plate reader using the following setting: Excitation 320 nm, Bandwidth […]; Emission 615 nm, Bandwidth […], Gain 100%, Flashes 100, Lag 60 μs. Data was reported as percentage of activity, with DMSO as 100%. Data was plotted and analyzed using Prism 8. The SPR Kd, biochemical Raf1-KRAS G12D/G12V/WT-GppNHP and PI3KCA-KRAS G12D/Q25A-GppNHp disruption assay IC50 of selected compounds described herein are shown in Table 4.

Assay [3] deals with T2, Avi-KRAS G12V (1-169) GppNHp/RAF1 RBD-3xFLAG (52-151) (Homo sapiens, UniProt P01116, G12V).
T2 construct: 50 nM Avi-KRAS G12V (1-169) GppNHp
The experiment in a line: RAS-effector PPI HTRF disruption assay, Raf1-GppNHp-KRAS G12V. Format: biochemical. The protocol:
as §1, §2, §3, §4, §5
Background: Time-resolved FRET reads energy transfer from a long-lived donor to a nearby acceptor.

The target of assay [4] is T3, Avi-KRAS G12D (1-169) GppNHp/RAF1 RBD-3xFLAG (52-151) (Homo sapiens, UniProt P01116, G12D).
T3 construct: 100 nM Avi-KRAS G12D (1-169) GppNHp
The experiment in a line: RAS-effector PPI HTRF disruption assay, Raf1-GppNHp-KRAS G12D. Type of assay: biochemical. As for the experimental part:
as §1, §2, §3, §4, §5

T3 sequence (P01116 1-169 isoform P01116-2 G12D): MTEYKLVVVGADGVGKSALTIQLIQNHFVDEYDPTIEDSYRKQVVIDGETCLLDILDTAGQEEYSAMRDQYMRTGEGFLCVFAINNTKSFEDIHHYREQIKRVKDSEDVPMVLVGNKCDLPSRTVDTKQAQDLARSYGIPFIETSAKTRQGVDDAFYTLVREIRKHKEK
T1 sequence (P01116 1-169 isoform P01116-2): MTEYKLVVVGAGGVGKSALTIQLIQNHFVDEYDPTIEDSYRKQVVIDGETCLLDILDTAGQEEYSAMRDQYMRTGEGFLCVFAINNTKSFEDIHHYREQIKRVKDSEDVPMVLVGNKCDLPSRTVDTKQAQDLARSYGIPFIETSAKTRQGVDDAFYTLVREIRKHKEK
T2 sequence (P01116 1-169 isoform P01116-2 G12V): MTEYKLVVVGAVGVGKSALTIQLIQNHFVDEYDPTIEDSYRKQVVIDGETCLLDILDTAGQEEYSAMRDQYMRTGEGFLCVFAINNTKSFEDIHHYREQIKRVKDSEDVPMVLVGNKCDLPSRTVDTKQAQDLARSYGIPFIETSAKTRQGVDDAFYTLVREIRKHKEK

As to `N#Cc1c(N)sc2c(F)ccc(-c3c(C(F)(F)F)cc4c(O[C@H]5CCC6(CNC6)C5)nc(OC[C@@]56CCCN5C[C@H](F)C6)nc4c3F)c12` (atropisomer, axis not shown) [Compound 78], the IC50 is greater than 1000 nM in assay [1] (read-out: pERK-Gp2D-1 hr), 1000 to 10000 nM in assay [2], greater than 10000 nM in assay [3] and 1000 to 10000 nM in assay [4].
For `N#Cc1c(N)sc2c(F)ccc(-c3c(C(F)(F)F)cc4c(O[C@H]5CCC6(CNC6)C5)nc(OC[C@@]56CCCN5C[C@H](F)C6)nc4c3F)c12` (atropisomer, axis not shown) [Compound 79], the IC50 in assay [1] (read-out: pERK-Gp2D-1 hr), in assay [2], in assay [3] and in assay [4] was no more than 100 nM in each case.
Consider `COC[C@H]1C[C@@H](Oc2nc(OC[C@@]34CCCN3C[C@H](F)C4)nc3c(F)c(-c4ccc(F)c5sc(N)c(C#N)c45)c(C(F)(F)F)cc23)CN1` (atropisomer, axis not shown) [Compound 80], for which the IC50 in assay [1] (read-out: pERK-Gp2D-1 hr) was no more than 100 nM; in assay [2] it was 100 to 1000 nM; in assay [3], 100 to 1000 nM; in assay [4] it was no more than 100 nM.
`COC[C@H]1C[C@@H](Oc2nc(OC[C@@]34CCCN3C[C@H](F)C4)nc3c(F)c(-c4ccc(F)c5sc(N)c(C#N)c45)c(C(F)(F)F)cc23)CN1` (atropisomer, axis not shown) [Compound 81]: the IC50 in assay [1] (read-out: pERK-Gp2D-1 hr) was greater than 1000 nM; in assay [2], greater than 10000 nM; in assay [3], greater than 10000 nM; in assay [4], greater than 10000 nM.
In the case of `COC[C@@H]1C[C@@H](Oc2nc(OC[C@@]34CCCN3C[C@H](F)C4)nc3c(F)c(-c4ccc(F)c5sc(N)c(C#N)c45)c(C(F)(F)F)cc23)CN1` (atropisomer, axis not shown) [Compound 84], the IC50 in assay [1] (GP2d, 1 h) is no more than 100 nM; in assay [2] it was 100 to 1000 nM; in assay [3], 100 to 1000 nM; in assay [4], no more than 100 nM.
Consider `N#Cc1c(N)sc2c(F)ccc(-c3c(C(F)(F)F)cc4c(O[C@@H]5CCC6(CNC6)C5)nc(OC[C@@]56CCCN5C[C@H](F)C6)nc4c3F)c12` (atropisomer, axis not shown) [Compound 85], for which the IC50 was 100 to 1000 nM in assay [1] (GP2d, 1 h); no more than 100 nM in assay [2]; 100 to 1000 nM in assay [3]; no more than 100 nM in assay [4].
On to `C[C@H]1CNCC1Oc1nc(OC[C@@]23CCCN2C[C@H](F)C3)nc2c(F)c(-c3ccc(F)c4sc(N)nc34)c(C(F)(F)F)cc12` (some centres unmarked) [Compound 1], for which, in assay [4], the IC50 is 1000 to 10000 nM.
Still for that read-out and setting: in the case of `CN1CCC[C@H]1COc1nc(OC2CNC2)c2cc(Cl)c(-c3ccc(F)c4sc(N)nc34)c(F)c2n1` [Compound 3] it was greater than 10000 nM.
As for `Nc1nc2c(-c3c(C(F)(F)F)cc4c(O[C@@H]5CCNC5)nc(OCC56CCCN5C[C@H](F)C6)nc4c3F)ccc(F)c2s1` (some centres unmarked) [Compound 4], the IC50 in assay [1] (GP2d, 1 h) was no more than 100 nM.
Take `N#Cc1c(N)sc2c(F)ccc(-c3c(C(F)(F)F)cc4c(OC5CCC6(CC5)CNC6)nc(OC[C@@]56CCCN5C[C@H](F)C6)nc4c3F)c12` [Compound 40]: the IC50 in assay [1] (GP2d, 1 h) was 100 to 1000 nM; in assay [2], no more than 100 nM; in assay [3], 100 to 1000 nM; in assay [4], no more than 100 nM.
In the case of `N#Cc1c(N)sc2c(F)ccc(-c3c(C(F)(F)F)cc4c(OC5CC6(CNC6)C5)nc(OC[C@@]56CCCN5C[C@H](F)C6)nc4c3F)c12` [Compound 43], the IC50 was 100 to 1000 nM in assay [1] (GP2d, 1 h); 100 to 1000 nM in assay [2]; 100 to 1000 nM in assay [3]; 100 to 1000 nM in assay [4].
With `Nc1nc2c(-c3ccc4c(O[C@H]5CNC[C@H]5F)nc(OC[C@@]56CCCN5C[C@H](F)C6)nc4c3F)ccc(F)c2s1` [Compound 82], the IC50 in assay [1] (GP2d, 1 h) was greater than 1000 nM; in assay [2], greater than 10000 nM; in assay [3] it was greater than 10000 nM; in assay [4], greater than 10000 nM.
Consider `C[C@H]1NCC[C@H]1Oc1nc(OC[C@@]23CCCN2C[C@H](F)C3)nc2c(F)c(-c3ccc(F)c4sc(N)nc34)ccc12` [Compound 83], for which the IC50 in assay [1] (GP2d, 1 h) is greater than 1000 nM; in assay [2], greater than 10000 nM; in assay [3], greater than 10000 nM; in assay [4], greater than 10000 nM.
`COC[C@H]1NCC[C@H]1Oc1nc(OC[C@@]23CCCN2C[C@H](F)C3)nc2c(F)c(-c3ccc(F)c4sc(N)c(C#N)c34)c(C(F)(F)F)cc12` [Compound 90]: the IC50 in assay [1] (GP2d, 1 h) was no more than 100 nM; in assay [2] it was 100 to 1000 nM; in assay [3] it was 1000 to 10000 nM; in assay [4], 100 to 1000 nM.
As for `COC[C@H]1NCC[C@H]1Oc1nc(OC[C@@]23CCCN2C[C@H](F)C3)nc2c(F)c(-c3ccc(F)c4sc(N)c(C#N)c34)ccc12` [Compound 91], the IC50 in assay [1] (GP2d, 1 h) was 100 to 1000 nM; in assay [2], greater than 10000 nM; in assay [3] it was greater than 10000 nM; in assay [4], greater than 10000 nM.
Regarding `N#Cc1c(-c2ccc(F)c3sc(N)c(C#N)c23)c(Cl)cc2c(O[C@H]3CNC[C@H]3F)nc(OC[C@@]34CCCN3C[C@H](F)C4)nc12` [Compound 92], the IC50 in assay [1] (GP2d, 1 h) was 100 to 1000 nM; in assay [2] it was 1000 to 10000 nM; in assay [3], greater than 10000 nM; in assay [4], 1000 to 10000 nM.
For the compound `N#Cc1c(N)sc2c(F)ccc(-c3cc4nc(OC[C@@]56CCCN5C[C@H](F)C6)nc(O[C@@H]5CCNC5)c4nc3C(F)(F)F)c12` [Compound 93, 2-amino-7-fluoro-4-(2-(((2R,7aS)-2-fluorotetrahydro-1H-pyrrolizin-7a(5H)-yl)methoxy)-4-(((R)-pyrrolidin-3-yl)oxy)-6-(trifluoromethyl)pyrido[3,2-d]pyrimidin-7-yl)benzo[b]thiophene-3-carbonitrile], the IC50 is no more than 100 nM in assay [1] (GP2d, 1 h); 1000 to 10000 nM in assay [2]; 1000 to 10000 nM in assay [3]; 1000 to 10000 nM in assay [4].
On to `C[C@@H]1C[C@@H](Oc2nc(OC[C@@]34CCCN3C[C@H](F)C4)nc3cc(-c4ccc(F)c5sc(N)c(C#N)c45)c(C(F)(F)F)nc23)CN1` [Compound 94], for which the IC50 was no more than 100 nM in assay [1] (GP2d, 1 h); 1000 to 10000 nM in assay [2]; 1000 to 10000 nM in assay [3]; 1000 to 10000 nM in assay [4].
`C[C@@H]1C[C@@H](Oc2nc(OC[C@@]34CCCN3C[C@H](F)C4)nc3cc(-c4ccc(F)c5sc(N)c(C#N)c45)c(C(F)(F)F)nc23)CN1` [Compound 95]: the IC50 in assay [1] (read-out: pERK-Gp2D-1 hr) was 100 to 1000 nM; in assay [2] it was greater than 10000 nM; in assay [3], greater than 10000 nM; in assay [4] it was greater than 10000 nM.
Take `C[C@H]1NCC[C@H]1Oc1nc(OC[C@@]23CCCN2C[C@H](F)C3)nc2cc(-c3ccc(F)c4sc(N)c(C#N)c34)c(C(F)(F)F)nc12` [Compound 96]: the IC50 in assay [1] (GP2d, 1 h) is no more than 100 nM; in assay [2], 100 to 1000 nM; in assay [3], 1000 to 10000 nM; in assay [4], 100 to 1000 nM.
